Assay results published in PubChem BioAssay AID2744 (NMMLSC, 2010).
Active and inactive are the calls of the source.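 How the source made its calls: active means fitted half-maximal concentration for changing reporter fluorescence at or below a set limit; inactive means the rest.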

Target: Citrate synthase, peroxisomal (Saccharomyces cerevisiae (strain ATCC 204508 / S288c)) (UniProt P08679)
Assay: yeast TOR pathway CIT2-GFP reporter potency – flow cytometry, MLPCN hits, dose response (AID 2744)
Details: S. cerevisiae CIT2-GFP strain, 3 h, at 33 µM (top of the series)

Sequence of Citrate synthase, peroxisomal (Saccharomyces cerevisiae (strain ATCC 204508 / S288c)) (P08679 whole entry, looked up): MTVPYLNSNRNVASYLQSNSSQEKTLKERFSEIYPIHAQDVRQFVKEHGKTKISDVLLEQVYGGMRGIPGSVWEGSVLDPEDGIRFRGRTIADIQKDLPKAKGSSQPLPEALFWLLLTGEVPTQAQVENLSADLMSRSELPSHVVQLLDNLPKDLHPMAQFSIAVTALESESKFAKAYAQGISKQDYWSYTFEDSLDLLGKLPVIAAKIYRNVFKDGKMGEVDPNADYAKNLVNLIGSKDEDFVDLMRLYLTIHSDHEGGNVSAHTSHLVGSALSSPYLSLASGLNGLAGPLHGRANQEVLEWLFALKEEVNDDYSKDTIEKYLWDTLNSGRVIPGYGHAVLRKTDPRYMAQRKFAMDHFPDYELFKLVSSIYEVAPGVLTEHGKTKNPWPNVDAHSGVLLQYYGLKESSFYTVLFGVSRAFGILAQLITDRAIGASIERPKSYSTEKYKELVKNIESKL

Row | SMILES | GFP fluorescence, higher = induction
1 | CCCCCCCCCCCCCCCC[n+]1cccc2ccccc21 | inactive
2 | O=C1CCN(S(=O)(=O)c2ccccc2)CCN1CCOCc1ccc(F)cc1 | inactive
3 | COc1cccc(N=Cc2nc(-c3ccccc3)oc2OC(C)=O)c1 | inactive
4 | C[C@@]12C(=O)OC(=O)[C@]1(C)C1CCC2O1 | inactive
5 | C[C@H]1C[C@@H](C)C(=O)[C@@H]([C@H](O)CC2CC(=O)NC(=O)C2)C1 | inactive
6 | CCCCCCCCC/C(=N\O)c1ccccn1 | inactive
7 | O=C(Oc1oc(-c2ccco2)nc1C=Nc1ccccc1)c1ccco1 | inactive
8 | O=S(=O)(/N=C(/Sc1ccccc1)c1ccccc1)c1ccccc1 | inactive
9 | CCN(CC)c1ccc(/C=C2\C(=O)c3ccc(C(=O)O)cc3C2=O)cc1 | inactive
10 | COc1ccc(C(=O)/C=C2/C(=O)Nc3ccccc32)c(OC)c1 | inactive
11 | COc1ccc(C2=CC3=C(Br)C(=O)C(C)(O)C(=O)C3=CO2)cc1 (stereo unspecified) | inactive
12 | CSC1=NS(=O)(=O)c2c(C)nn(C)c2S1 | inactive
13 | CC(=O)N(C1=C(Cl)C(=O)c2ccccc2C1=O)C1CCCCC1 | inactive
14 | O=C(COc1ccccc1)NNC(=S)NC(=O)c1ccccc1 | inactive
15 | CC(Oc1ccc(Br)cc1)C(=O)Nc1nc(-c2ccccn2)cs1 (stereo unspecified) | inactive
16 | O=c1/c(=C/c2cccc3ccccc23)sc2ncnn12 | inactive
17 | COC(=O)/C(=C/c1c[nH]c2ccccc12)[N+](=O)[O-] | inactive
18 | O=[N+]([O-])c1cnc(Sc2ccncn2)s1 | inactive
19 | CC1=NNC(=O)/C1=C\c1cn(-c2ccccc2)nc1-c1cccs1 | inactive
20 | O=c1[nH]c(-c2ccccn2)nc(C(F)(F)F)c1Br | inactive
21 | O=C(/C=C/c1ccccc1[N+](=O)[O-])c1ccccc1Br | inactive
22 | CC(=O)Oc1oc(-c2ccccc2)nc1C=Nc1ccc(N(C)C)cc1 | inactive
23 | CCOC(=O)c1c(C)oc2c1c(C(c1cccnc1)N1CCOCC1)c(O)c1ccccc12 (stereo unspecified) | inactive

Row | SMILES | GFP fluorescence, higher = induction
24 | COc1cccc(/C=C2\C(=O)N(c3cccc(C)c3)C(=O)c3ccccc32)c1 | inactive
25 | Cc1ccc(S(=O)(=O)ON2C(=O)c3ccccc3C2=O)c(C)c1 | inactive
26 | Cn1c(=O)c(C(=O)NNC(=O)c2ccc(Br)cc2)c(O)c2ccccc21 | inactive
27 | CCc1nc2ccccc2c(=O)n1NC(=O)c1c(O)c2ccccc2n(CC)c1=O | inactive
28 | Cc1c(N2C(=O)/C(=C\c3ccccc3O)SC2=S)c(=O)n(-c2ccccc2)n1C | inactive
29 | N#Cc1ccc(N=c2ssnc2Cl)cc1 | inactive
30 | Cc1ccc(C(=O)O)cc1N=Cc1cc(Br)cc(Br)c1O | inactive
31 | COc1cc(/C=C2\C(=O)ON=C2c2ccccc2)cc(OC)c1OC | inactive
32 | CC(C)(C)n1nc(-c2ccc(Cl)cc2)c2c(N)ncnc21 | inactive
33 | CCn1c(=O)c(C(C)=O)c(O)c2ccccc21 | inactive
34 | Oc1c(Br)cc(Br)cc1C=Nc1ccc2c(c1)OCO2 | inactive
35 | O=C(COc1ccc(F)cc1Cl)Nc1nc(-c2ccccn2)cs1 | inactive
36 | O=C(Oc1ccnc2cc(Cl)ccc12)N1CCCCCC1 | inactive
37 | CC(=O)NN1C(=O)/C(=C/c2ccc(Br)o2)SC1=S | inactive
38 | COc1cccc(C(=O)Nc2nnc(-c3ccc(Cl)cc3)o2)c1 | inactive
39 | Cc1cccc(N=C2NC(=O)/C(=C/C=C/c3ccco3)S2)c1C | inactive
40 | COc1ccc(C(=O)NC(=S)NNC(=O)c2cnccn2)cc1OC | inactive
41 | Cc1ccc(-c2nn(C(C)(C)C)c3ncnc(N)c23)cc1 | inactive
42 | CCOC(=O)CSC1=NC(=O)/C(=C/c2ccc(OC)cc2)S1 | inactive
43 | COc1ccc(NC(=O)/C(Cl)=C(/Cl)S(=O)Cc2ccccc2)cn1 (stereo unspecified) | inactive
44 | Nc1nc2ncc(CNc3ccc(C(=O)N[C@@H](CCC(=O)O)C(=O)O)cc3)nc2c(=O)[nH]1 | inactive
45 | O=[N+]([O-])c1cc(CN2CCN(c3cccc(C(F)(F)F)c3)CC2)c2cccnc2c1O | inactive
46 | O=c1oc(/C=C/c2ccc([N+](=O)[O-])s2)nc2ccccc12 | inactive

Row | SMILES | GFP fluorescence, higher = induction
47 | COc1cccc(/C=N/Nc2ncc(C(F)(F)F)cc2Cl)c1O | inactive
48 | O=C(Sc1cccc2cccnc12)c1ccccc1Br | inactive
49 | O=C(C#Cc1cccc([N+](=O)[O-])c1)c1ccccc1 | inactive
50 | CS(=O)(=O)c1sc(C#N)c2c1C(=O)CC(c1ccccc1)C2 (stereo unspecified) | inactive
51 | Cc1ccccc1OCCOC(=O)c1ccc(S(=O)(=O)N2CCCC2)cc1 | inactive
52 | C=CCOc1ccccc1C(=O)/C=C1/C(=O)Nc2ccccc21 | inactive
53 | CC[C@H](C)/C=C(C)/C=C/C1=CC2=C(Cl)C(=O)[C@@](C)(OC(C)=O)C(=O)C2=CO1 | inactive
54 | O=C(Oc1ccnc2cc(Cl)ccc12)N1CCOCC1 | inactive
55 | O=C1N(c2ccccc2C(F)(F)F)O[C@]1(c1ccccc1)C1CCCC1 | inactive
56 | COc1cc(/C=C2\C(=O)ON=C2c2ccc(Cl)cc2)ccc1O | inactive
57 | O=C1c2cccc3c([N+](=O)[O-])ccc(c23)C(=O)N1c1ccccn1 | inactive
58 | Cc1c(NC2=C(Cl)C(=O)N(c3ccccc3)C2=O)c(=O)n(-c2ccccc2)n1C | inactive
59 | CC(C)[C@]1(c2ccc(Cl)cc2)ON(c2ccccc2C(F)(F)F)C1=O | inactive
60 | CCN1C(=O)/C(=C\C(=O)c2cccs2)c2cc(Br)ccc21 | inactive
61 | O=C(Oc1oc(-c2ccco2)nc1C=Nc1ccccc1)c1ccoc1 | inactive
62 | Cc1ccccc1C(=O)NNC(=S)NC(=O)c1ccc(Cl)cc1Cl | inactive
63 | O=C1NC(=O)N(Cc2ccc(F)cc2)C(=O)/C1=C/c1cccs1 | inactive
64 | O=C1C=C(c2ccccc2)C(=O)N1Nc1ccccc1 | inactive
65 | CCc1ccc2c(c1)/C(=C/C(=O)c1cccs1)C(=O)N2 | inactive
66 | CCOC(=O)C1=C(O)c2ccccc2C(=O)/C1=C\c1ccc(C)cc1 | inactive
67 | CC(C)[C@@]1(c2ccc(Cl)cc2)ON(c2ccccc2C(F)(F)F)C1=O | inactive
68 | CCOC(=O)c1c(C)oc2c1c(C(c1ccncc1)N1CCOCC1)c(O)c1ccccc12 (stereo unspecified) | inactive
69 | Cc1ccsc1/C=C1\C(=O)NC(=S)N(C)C1=O | inactive

Row | SMILES | GFP fluorescence, higher = induction
70 | Cc1cccc(/C=C/C(=O)c2ccc([N+](=O)[O-])o2)c1 | inactive
71 | COc1cccc(/C=C2\SC(=S)N(CCCC(=O)Nc3ccc(C(=O)O)cc3)C2=O)c1 | inactive
72 | Cc1cccc(C(=O)NNC(=S)NC(=O)c2ccccc2)c1 | inactive
73 | O=C1C(Cl)=C(NCCc2ccccc2)C(=O)N1CCc1ccccc1 | inactive
74 | O=C1C=CC(=O)N1N(c1ccccc1)c1ccccc1 | inactive
75 | O=C1C=CC(=O)N1c1cccc(-c2ccccc2)c1 | inactive
76 | Cc1ccc(-c2nc(N)c3c(-c4ccc(C)cc4)nn(C(C)(C)C)c3n2)cc1 | inactive
77 | CCOc1ccc(NC2=C(Cl)C(=O)N(Cc3ccccc3)C2=O)cc1 | inactive
78 | O=C(CCc1ccccc1)NNC(=S)NC(=O)c1ccccc1 | inactive
79 | Oc1c(CN2CCN(c3ccc(F)cc3)CC2)cc(Cl)c2cccnc12 | inactive
80 | O=C(COc1c(Br)cc(Br)c2cccnc12)N1CCc2ccccc2C1 | inactive
81 | CCOC(=O)COc1ccc2ccccc2c1/C=C/[N+](=O)[O-] | inactive
82 | CCCCc1ccc(NC(=O)CC(C)=O)cc1 | inactive
83 | CC(C)C[C@]1(c2ccccc2)ON(c2ccccc2C(F)(F)F)C1=O | inactive
84 | C[C@@H]1C[C@@H]([C@H](O)CC2CC(=O)NC(=O)C2)C(=O)[C@@H](C)C1 | inactive
85 | O=C(/C=C/Sc1ncn[nH]1)c1ccc(Cl)cc1 | inactive
86 | O=C1c2ccccc2C(=O)N1OS(=O)(=O)c1ccc(F)cc1 | inactive
87 | Cc1ccc(/C=C/C(=O)c2ccc([N+](=O)[O-])o2)cc1 | inactive
88 | O=C1c2cccc3c([N+](=O)[O-])ccc(c23)C(=O)N1O | inactive
89 | COc1ccc(N/N=C(\C#N)C(N)=O)cc1 | inactive
90 | CC1=CC(=O)C(C(C)C)=C/C1=N/OS(=O)(=O)c1ccccc1 | inactive
91 | CC(=O)Oc1ccc(N2C(=O)C3C4C=CC(O4)C3C2=O)cc1 (stereo unspecified) | inactive
92 | COc1ccc(NC2=C(Cl)C(=O)N(CCc3ccccc3)C2=O)cc1 | inactive

Same assay, conditions: S. cerevisiae CIT2-GFP strain, flow cytometry fluorescence, 3 h

Row | SMILES | EC50 [µM]
93 | N/C(Cc1ccc(Cl)cc1)=N\OC(=O)c1ccccc1 | 3.35
94 | Cc1ccc(NC(=O)ON=C2CCCC2)cc1 | 3.79
95 | CCCCC(=O)NNC(=S)NC(=O)c1ccc(C)cc1 | 3.39
96 | N/C(=N\OC(=O)c1cc(Br)ccc1Cl)c1ccccn1 | 4.11
